Results on two molecules are retold here after patent US20140023656A1, “PHARMACEUTICAL COMPOSITION FOR TREATMENT AND PREVENTION OF TH3 MARCH-RELATED DISEASES” (BioLT CO., LTD., priority 2010, published 2014).

One assay has as its system filaggrin (FLG) proteins. Put plainly: ELISA measurement of filaggrin (FLG) and filaggrin repair capacity. The assay is classed as in vivo, human. As to conditions: person, vulgaris psoriasis. The source says:
A kit for sandwich enzyme immunoassay was used for quantitatively in vitro measuring filaggrin (FLG) proteins (gene related filaggrin) in a tissue homogenate or other body fluids.
Specifically, as for detection strength, measurement was done at a wavelength of 450 nm. Biotin-coupled polyclonal antibody specifically coupled with FLG was used, and the actual measured value of filaggrin (ng/ml frozen serum) was roughly estimated by a standard curve (FIG. 17) previously prepared with FLG standard sample.
Amongst mammal patients (human and dog etc.) having Th3 march/test animals, patients an amount of filaggrin proteins based on filaggrin (FLG) gene which is responsible gene of atopy syndrome (atopy is newly defined as atopy syndrome by the finding of filaggrin) were not detected or were detected in a small amount (deletion or mutation of filaggrin gene) were selected (Th3-FLG).
Subsequently, “zinc finger/Znf” (see Table 5 above) was administrated to the patients etc. (Th3-FLG) in which deletion etc. of filaggrin were confirmed, after which filaggrin repair activity was compared. […]
The filaggrin repair capacity (% of control) by zinc finger/Znf was calculated according to the following formula: […]
For orientation: ELISA stands for enzyme-linked immunosorbent assay.

Another assay deals with vulgaris psoriasis. Put plainly: Clinical effects in vulgaris psoriasis (Th1 disease/Th3 march). The format is in vivo, human. Conditions: person, oral 75 mg twice per day as polaprezinc, 61 days. How it is done: This example is an example of treatment of Th2 march patient from Th1 disease (psoriasis). (1) For referential example (control experiment), zinc agent (Trade name: Promac) was tried to be administrated to this patient. Since the activated TGF-β1 was as high as 9.3 ng/ml (average value of healthy subjects: 1.1 ng/ml), a novel supplement TgF was administrated to regulate TGF-β1. Thereafter, Promac was orally administrated to the adult twice per day in an amount of 75 mg per one dosage, or 1.6 mg/kg at a time after breakfast and a time before bedtime as polaprezinc. Promac was administrated for 61 days. […] (2) On the other hand, zinc finger/Znf was administrated to the patient for 74 days. This case (vulgaris psoriasis) is a disease presenting hyperkeratosis and is characterized by scale.

The next assay has as its system dog rheumatoid arthritis. Put plainly: Treatment of dog rheumatoid arthritis (plain x-ray examination, walking). The format is in vivo. The source says: FIG. 3 is a drawing showing the results of examining characteristic bone resorption in dog rheumatoid arthritis. Th3 march via zinc cell cytokine signal is marching through a route of cell surface BMP and TGF-β1. […] When the healing can be seen thereafter (FIG. 4), bone resorption and bone augmentation are equilibrated. However, TH3 vital reaction is enhanced to clinically induce atopic dermatitiss.
In FIG. 4, according to the finding of the plain x-ray examination, a bone resorption image of arthritis due to rheumatoid arthritis which is Th1 vital reactive disease (pretreatment) is shown. In the right figure of FIG. 4 showing the post-treatment, an improvement image of joint was seen when bone resorption and bone augmentation were balanced. […] According to the finding of post-treatment in the right figure of FIG. 4, incisura trochlearis in the elbow joint was visualized and significant improvement tendency was observed (Evaluation: While the dog before treatment hated going for a walk, the dog could go for a walk (about 5 minutes). It is noted that the standard walking period in the same kind of dog is within 30 minutes).

In turn, `NCCC(=O)[N-][C@@H](Cc1c[nH]cn1)C(=O)[O-].[Zn+2]` [Promac, polaprezinc] gave a filaggrin with filaggrin (FLG) proteins (at the time after zinc agent (control experiment)) of 0.9 ng/mL. In the assay on filaggrin (FLG) proteins (oral 75 mg twice per day as polaprezinc, 61 days), the FLA repair result is given as “could not be recognized”. Moreover, the clinical effect result in the assay with vulgaris psoriasis was “no clinical effect could be recognized”; in the assay on vulgaris psoriasis (listed as zinc agent) it was “no effect”.

B1: IFN-γ: recombinant interferon-gamma used to treat dog rheumatoid arthritis (protein, UniProt P42161 24-166, looked up)
Interferon gamma: QAMFFKEIENLKEYFNASNPDVSDGGSLFVDILKKWREESDKTIIQSQIVSFYLKLFDNFKDNQIIQRSMDTIKEDMLGKFLNSSTSKREDFLKLIQIPVNDLQVQRKAINELIKVMNDLSPRSNLRKRKRSQNLFRGRRASK
For the molecule B1, in the assay on dog rheumatoid arthritis (dog after treatment, before treatment hated going for a walk, standard within 30 minutes), the “walk the dog could go for” value is reported as “about 5 minutes”. In addition, the “bone resorption during the course of the treatment” value in the assay with dog rheumatoid arthritis (dog rheumatoid arthritis, FIG. 3) is on record as “bone resorption is predominant”. Further, the “hyperpermeability image due to invasion around the joint and inflammation of joint” value in the assay with dog rheumatoid arthritis (dog, Th1 arthritis, direct administration of 4MU within the joint, plain x-ray) is recorded as “significantly improved”.
